Paper PMC8235214, “Purification, Identification, Activity Evaluation, and Stability of Antioxidant Peptides from Alcalase Hydrolysate of Antarctic Krill (Euphausia superba) Proteins” (Marine Drugs, 2021)
Like-named read-outs stand apart in the source and are kept apart here. Ends that are not written are not given here. Peptide text beside a SMILES is read from it.

What was measured:
[1] = Simulated GI digestion stability (pepsin then pancreatin, DPPH· scavenging read-out); assay type: in vitro ADME; conditions: peptide 1.0 mg/mL; two-stage model, pepsin 120 min then pancreatin 60 min (0 to 180 min); mean ± SD, n = 3
Experimental: The influence of simulate GI digestion on the stability of ESP6, ESP7, and ESP8 was evaluated by the two-stage digestion model. In short, ESP6, ESP7, and ESP8 were separately treated with pepsin for 120 min and pancreatin for 60 min.
The DPPH· scavenging ratio (%) of ESP6, ESP7, and ESP8 at 1.0 mg/mL were measured at the set time to analyze their stability.

[2] = cited from earlier work; for Stability under thermal and pH treatments (HO· scavenging activity): high temperature (>60 °C) and strong acid and alkali conditions; for Stability under thermal and pH treatments: 25–100 °C or pH 3–11 treatments
Excerpt: The pH and thermal stability of antioxidant peptides are key properties for their applications in food and health products, and tolerance property on simulated GI digestion treatments can help to assess the rate of metabolism and timeliness of antioxidant peptides in vivo [25, 52, 68, 69].

[3] = set-up: method as in 6 sources, ref 36 = [36]; PMID 23411302; doi:10.1016/j.foodchem.2012.12.002; 36. Wang B. Li L. Chi C.F. Ma J.H. Luo H.Y. Xu Y.F. Purification and Characterization of a novel antioxidant peptide derived from blue mussel ( Mytilus edulis ) protein hydrolysate Food Chem. 2013 138 ||| ref 45 = [45]; doi:10.1016/j.foodres.2010.02.009; 45. You L. Zhao M. Regenstein J.M. Ren J. Purification and identification of antioxidative peptides from loach ( Misgurnus anguillicaudatus ) protein hydrolysate by consecutive chromatography and elec ||| ref 46 = [46]; PMID 22652579; doi:10.1016/j.peptides.2012.05.013; 46. Wang B. Li Z.R. Chi C.F. Zhang Q.H. Luo H.Y. Preparation and evaluation of antioxidant peptides from ethanol-soluble proteins hydrolysate of Sphyrna lewini muscle Peptides 2012 36 240 250 10.1016/ ||| ref 49 = [49]; PMID 31058809; doi:10.3390/md17050263; 49. Pan X.Y. Wang Y.M. Li L. Chi C.F. Wang B. Four antioxidant peptides from protein hydrolysate of red stingray ( Dasyatis akajei ) cartilages: Isolation, identification, and in vitro activity evalua ||| ref 22 = [22]; PMID 32164197; doi:10.3390/md18030153; 22. Hu X.M. Wang Y.M. Zhao Y.Q. Chi C.F. Wang B. Antioxidant peptides from the protein hydrolysate of monkfish ( Lophius litulon ) muscle: Purification, identification, and cytoprotective function on ||| ...; conditions: cited from earlier work
[4] = cited from earlier work
Excerpt: In the organism, HO· can oxidize and damage most of the macromolecules due to its high reactivity characteristic. Therefore, looking for natural antioxidant peptides with high HO· scavenging ability is key for discovering new antioxidants. […] In addition, EC50 values of ESP6, ESP7, and ESP8 were also lower ...

[5] = cited from earlier work; remark: listed apart in the source
Excerpt: However, no significant difference was found among the EC50 values of ESP6, ESP7, and ESP8 (p > 0.05).

[6] = peptides from giant squid protein
[7] = peptides from Raja porosa cartilage
[8] = peptides from miiuy croaker swim bladders
[9] = peptides from Mytilus edulis and scales of croceine croaker
[10] = peptides from skipjack tuna heads
[11] = peptides from swim bladders of miiuy croaker
[12] = peptides from red stingray cartilages
[13] = peptides from Sphyrna lewini muscle

## CC(C)C[C@H](NC(=O)[C@@H](N)CO)C(=O)N1CCC[C@H]1C(=O)N[C@@H](Cc1ccc(O)cc1)C(=O)O [ESP6, Ser-Leu-Pro-Tyr] (H-SLPY-OH)
[1]
  Decrease of DPPH· scavenging ratio by simulated GI digestion: 6.41 ± 0.96%

## CSCC[C@H](NC(=O)[C@@H]1CCCN1C(=O)[C@@H]1CCCN1C(=O)[C@H](Cc1ccc(O)cc1)NC(=O)[C@@H](N)CCC(N)=O)C(=O)N[C@@H](CCC(N)=O)C(=O)N[C@@H](Cc1ccc(O)cc1)C(=O)O [ESP7, Gln-Tyr-Pro-Pro-Met-Gln-Tyr] (H-QYPPMQY-OH)
[1]
  Decrease of DPPH· scavenging ratio by simulated GI digestion: 8.36 ± 0.59%

## C[C@H](NC(=O)[C@H](CCC(=O)O)NC(=O)[C@H](Cc1ccc(O)cc1)NC(=O)[C@@H](N)CCC(=O)O)C(=O)O [ESP8, Glu-Tyr-Glu-Ala] (H-EYEA-OH)
[1]
  Decrease of DPPH· scavenging ratio by simulated GI digestion: 6.48 ± 1.03%

## ATSHH
[2]; 50–90 °C and strong acids and bases
  Stability under thermal and pH treatments (DPPH· scavenging activity): will decrease its partial DPPH· scavenging activity

## EDIVCW [EDIVCW, antioxidant peptide from monkfish muscle]
[3]; peptides from monkfish muscle
  EC50 on DPPH·: 390 µg/mL

## FDSGPAGVL [FDSGPAGVL, antioxidant peptide from giant squid protein]
[4]; [6]
  EC50 on HO·: 78 µg/mL

## FIMGPY [FIMGPY, antioxidant peptide from Raja porosa cartilage]
[5]; [7]
  EC50 on O2−·: 1610 µg/mL

## FPYLRH [FPYLRH, antioxidant peptide from miiuy croaker swim bladders]
[4]; [8]
  EC50 on HO·: 680 ± 50 µg/mL
[3]; [8]
  EC50 on DPPH·: 510 ± 30 µg/mL

## GPAGDY [GPAGDY, antioxidant peptide from Raja porosa cartilage]
[5]; [7]
  EC50 on O2−·: 1660 µg/mL

## GPAGPAG [GPAGPAG, antioxidant peptide from scales of croceine croaker]
[3]; [9]
  EC50 on DPPH·: 675 µg/mL

## Glu-Met-Gly-Pro-Ala [EMGPA, antioxidant peptide from skipjack tuna heads]
[5]; [10]
  EC50 on O2−·: 710 µg/mL
[2]
  Stability under thermal and pH treatments (HO· scavenging activity): significantly influenced

## Gly-Ile-Glu-Trp-Ala [GIEWA, antioxidant peptide from miiuy croaker swim bladders]
[3]; [8]
  EC50 on DPPH·: 780 ± 50 µg/mL

## Gly-Phe-Pro-Ser-Gly [GFPSG, antioxidant peptide from scales of croceine croaker]
[3]; [9]
  EC50 on DPPH·: 283 µg/mL

## Gly-Phe-Tyr-Ala-Ala [GFYAA, antioxidant peptide from miiuy croaker swim bladders]
[5]; [11]
  EC50 on O2−·: 3030 ± 190 µg/mL
[4]; [8]
  EC50 on HO·: 2350 ± 220 µg/mL

## IVAGPQ [IVAGPQ, antioxidant peptide from skate (Raja porosa) cartilages]
[5]; [7]
  EC50 on O2−·: 1820 µg/mL
[4]; peptide from skate cartilages
  EC50 on HO·: 5030 µg/mL

## Ile-Glu-Glu-Glu-Gln [IEEEQ, antioxidant peptide from red stingray cartilages]
[3]; [12]
  EC50 on DPPH·: 4010 µg/mL

## Leu-Glu-Glu-Glu-Glu [LEEEE, antioxidant peptide from red stingray cartilages]
[3]; [12]
  EC50 on DPPH·: 3690 µg/mL

## MYPGLA
[2]
  Stability under thermal and pH treatments: high stability

## Met-Glu-Pro-Val-Trp [MEPVW, antioxidant peptide from monkfish muscle]
[5]; peptide from monkfish muscle
  EC50 on O2−·: 940 µg/mL
[3]; peptides from monkfish muscle
  EC50 on DPPH·: 620 µg/mL

## Met-Ile-Leu-Met-Arg [MILMR, antioxidant peptide from croceine croaker muscle]
[5]; peptide from croceine croaker muscle
  EC50 on O2−·: 993 µg/mL

## NGPLQAGQPGER [NGPLQAGQPGER, antioxidant peptide from giant squid protein]
[4]; [6]
  EC50 on HO·: 123 µg/mL

## Phe-Ser-Gly-Leu-Arg [FSGLR, antioxidant peptide from miiuy croaker swim bladders]
[5]; [11]
  EC50 on O2−·: 3350 ± 200 µg/mL
[4]; [8]
  EC50 on HO·: 2450 ± 250 µg/mL

## Phe-Thr-Gly-Met-Asp [FTGMD, antioxidant peptide from miiuy croaker swim bladders]
[5]; [11]
  EC50 on O2−·: 3040 ± 270 µg/mL
[4]; [8]
  EC50 on HO·: 2310 ± 120 µg/mL

## Pro-Ser-Tyr-Val [PSYV, antioxidant peptide from weatherfish loach]
[4]; peptide from weatherfish loach
  EC50 on HO·: 2640 µg/mL
[3]; peptide from weather loach
  EC50 on DPPH·: 17000 µg/mL

## Pro-Tyr-Phe-Asn-Lys [PYFNK, antioxidant peptide from Sphyrna lewini muscle]
[5]; [13]
  EC50 on O2−·: 110 µg/mL
[4]; [13]
  EC50 on HO·: 240 µg/mL
[3]; [13]
  EC50 on DPPH·: 4110 µg/mL

## Trp-Asp-Arg [WDR, antioxidant peptide from Sphyrna lewini muscle]
[5]; [13]
  EC50 on O2−·: 90 µg/mL
[4]; [13]
  EC50 on HO·: 150 µg/mL
[3]; [13]
  EC50 on DPPH·: 3630 µg/mL

## Trp-Glu-Gly-Pro-Lys [WEGPK, antioxidant peptide from heads of bluefin leatherjacket]
[4]; peptide from heads of bluefin leatherjacket
  EC50 on HO·: 5567 µg/mL

## Trp-Met-Gly-Pro-Tyr [WMGPY, antioxidant peptide from skipjack tuna heads]
[5]; [10]
  EC50 on O2−·: 380 µg/mL
[2]
  Stability under thermal and pH treatments (HO· scavenging activity): significantly influenced

## Trp-Met-Phe-Asp-Trp [WMFDW, antioxidant peptide from skipjack tuna heads]
[5]; [10]
  EC50 on O2−·: 560 µg/mL
[2]
  Stability under thermal and pH treatments (HO· scavenging activity): significantly influenced

## Tyr-Leu-Pro-Tyr-Ala [YLPYA, antioxidant peptide from swim bladders of miiuy croaker]
[5]; [11]
  EC50 on O2−·: 3610 ± 250 µg/mL

## Tyr-Phe-Leu-Trp-Pro [YFLWP, antioxidant peptide from miiuy croaker muscle]
[5]; peptide from miiuy croaker muscle
  EC50 on O2−·: 3080 µg/mL

## Tyr-Pro-Pro-Ala-Lys [YPPAK, antioxidant peptide from blue mussel (Mytilus edulis)]
[5]; peptide from blue mussel
  EC50 on O2−·: 72 µg/mL
[4]; peptide from blue mussel
  EC50 on HO·: 228 µg/mL
[3]; [9]
  EC50 on DPPH·: 2620 µg/mL

## Tyr-Trp-Asp-Ala-Trp [YWDAW, antioxidant peptide from monkfish muscle]
[3]; peptides from monkfish muscle
  EC50 on DPPH·: 510 µg/mL

## VPDDD [antioxidant peptide from swim bladders of miiuy croaker]
[5]; [11]
  EC50 on O2−·: 4110 ± 310 µg/mL

## Val-Pro-Arg [VPR]
[3]; [12]
  EC50 on DPPH·: 4610 µg/mL

## Val-Pro-Asp-Asp [VPDD, antioxidant peptide from miiuy croaker swim bladders]
[4]; [8]
  EC50 on HO·: 2850 ± 190 µg/mL

## WAFAPA
[2]
  Stability under thermal and pH treatments: high stability
